# Assay results as given in patent US20230043035A1, “AGAROPHYTON CHILENSIS EXTRACT, RICH IN FREE FATTY ACIDS, AS A NUTRACEUTICAL OR NUTRITIONAL SUPPLEMENT, SUITABLE FOR MODULATING PPAR# ACTIVITY” (UNIVERSIDAD ANDRES BELLO, priority 2019, published 2023).
# Legend:
# PPARγ = molecular target: T1, PPARγ (Homo sapiens, UniProt P37231); test: PPARγ activation assay (gal4 PPARγ reporter gene) in PC12 cells; format: cell-based; conditions: 25 μM, n=10
# T1 construct: GAL4 (fusion partner); expressed in transfected cells; host or cells: PC12 cells, transiently transfected with Lipofectamine 2000
# T1 sequence (P37231 238-503 limits assumed): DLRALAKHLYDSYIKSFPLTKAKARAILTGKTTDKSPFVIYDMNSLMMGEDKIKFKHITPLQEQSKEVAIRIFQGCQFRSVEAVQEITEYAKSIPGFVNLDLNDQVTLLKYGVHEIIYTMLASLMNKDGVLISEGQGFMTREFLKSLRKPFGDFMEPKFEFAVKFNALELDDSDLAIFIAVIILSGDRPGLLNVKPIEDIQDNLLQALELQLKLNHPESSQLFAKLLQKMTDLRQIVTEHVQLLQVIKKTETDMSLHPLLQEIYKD
# Experimental: In the PPARγ activation assay, an assay with the reporter gene gal4 PPARγ is performed, which allow assessing the activation of PPARγ induced by ligand, to which end concentrations of 30 and 60 μg/mL were used. PC12 cells were seeded in a 48-well plate at a density of 100,000 cells/well/250 μL of maintenance medium containing the medium RPMI1640® (Roswell Park Memorial Institute-1640 Medium) supplemented with 10% of horse serum (HS), 5% of fetal bovine serum (FBS) and 1× antibiotic/antimicotic (Ab-Am). Then, the DNA (0.8 μg luciferase plasmid (MH100tkLUC), 0.8 μg PPARγGAL4 plasmid and 0.053 μg β-galactosidase plasmid, (β-Gal)) were mixed in OptiMEM® (Opti-Minimun Essential Medium). This constitutes the DNA mixture. In parallel, lipofectamine 2000 was diluted in OptiMEM®. This constitutes the Lipofectamine® mixture. […] The lysate was collected, centrifuged for 1 minute at 14000 rpm, the β-galactosidase and luciferase activity in the supernatant was measured, and the times of PPARγ activation was calculated relative to the DMSO control (final concentration in the medium of 0.1%). In parallel, the activity of β-galactosidase was assessed (colorimetry). […] The activity results were expressed as times of increase in relation to the activity obtained with control cells (treated only with DMSO). […]
# 3T3-L1 cells [1] = test: Differentiation of 3T3-L1 cells into adipocytes, Oil Red O accumulation; format: cell-based; conditions: 25 μM, 3T3-L1, day 10, n=4
# Experimental: (§1) In order to assess the effect of the claimed extracts on differentiation of fibroblasts into adipocytes, 3T3-L1 cells are cultured at low passage, avoiding cells from reaching confluence. […] Thereafter, the maintenance medium was replaced.
# 3T3-L1 cells [2] = test: MTT viability assay in 3T3-L1 cells of the differentiation assay; format: cell-based; conditions: 25 μM, 3T3-L1, n=3
# Experimental: In order to assess the effect of the claimed extracts on differentiation of fibroblasts into adipocytes, 3T3-L1 cells are cultured at low passage, avoiding cells from reaching confluence. […] Thereafter, the maintenance medium was replaced. […] After removing MTT, DMSO (99.9%) was added to lyse cells and dissolve MTT/MTT formazan. In order to assess absorbance at 570 nm and 620 nm in a spectrophotometer, 100 μl of this solution were moved to a 96-well plate. The difference between absorbances was calculated, and the survival relative to the control (DMSO) was determined.
# fabp4 gene = test: mRNA expression of adipocyte differentiation marker fabp4 in 3T3-L1 cells (qPCR); format: cell-based; conditions: 25 μM, 3T3-L1, day 7, n=3
# Experimental: as §1
# cortical neurons = test: Neuroprotection assay: cortical neurons damaged with oligomycin A, MTT viability; format: cell-based, rat
# Description: To assess the neuroprotective capacity of Extract B, a model of neuronal damage caused by chemical ischemia was used, preferably the model of damage caused by oligomycin A. Oligomycin A is a macrolide that blocks oxidative phosphorylation, inhibiting mitochondrial ATP synthase.
# In order to assess the neuroprotective capacity, a primary culture of cortical neurons of stage E18 rat embryos was used. To this end, adult female rats were acquired, pregnant at stage 18, from the CINBIOT bioterium of the Faculty of Biological Science, Pontificia Universidad Católica de Chile. […]
# On the 9th of culture, the challenge with oligomycin A was carried out. […] Thereafter, neuronal viability was determined, by removing the entire culture medium, it was washed once with PBS and incubated with 0.5 mg/mL of MTT in neurobasal medium without phenol red at 37° C. for 2 hours to establish the mitochondrial activity, wherein MTT (yellow) is transformed into MTT formazan (dark blue), when reduced by live cells. […] Subsequently, 100 μl of this solution were moved to a 96-wel plate to measure absorbance at 570 nm and 620 nm in spectrophotometer. The difference between absorbances (570-620) was calculated, and the survival was estimated relative to the control treated with DMSO and without damage caused by oligomycin A. The presence of MTT formazan is quantified at 570 nm. […]
compound,measurement,setting,value
CC(C)C[C@H](NC(=O)OCC1c2ccccc2-c2ccccc21)C(=O)O [FMOC-Leu],"PPARγ transcriptional activity, times higher than negative control",PPARγ,14.7 times
same,"Oil Red O (neutral lipid) accumulation, times relative to control",3T3-L1 cells [1],1.1
same,cell survival (MTT) relative to control (DMSO),3T3-L1 cells [2],100%
same,"fabp4 mRNA expression, times relative to control DMSO",fabp4 gene,1.7 times
vitamin E,protection against oligomycin A,"cortical neurons; 10 μM alone, data not shown",does not provide protection
"CC[C@@H]1/C=C/C=C/C[C@H](C)[C@H](O)[C@](C)(O)C(=O)[C@H](C)[C@@H](O)[C@H](C)C(=O)[C@H](C)[C@@H](O)[C@H](C)/C=C/C(=O)O[C@H]2[C@@H](C)[C@@H](CC1)O[C@@]1(CC[C@@H](C)[C@@H](C[C@H](C)O)O1)[C@@H]2C [oligomycin A, Oligomycin A]","neuronal viability after oligomycin A, % of undamaged DMSO control","cortical neurons; oligomycin A 2 μM 30 min, no extract, rat cortical neurons",22.5%
